Laboratory results: PubChem BioAssay AID2060327 (Molecular Pharmacology Branch, DTP, NCI, 2025)

System: PC-3 multi-cell spheroids, viability
Assay: Anticancer human tumor PC-3 cell line growth inhibition [IpAb];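 note: spheroids exposed to compounds for 7 days before readout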;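 for viability, T/C: 100% = DMSO vehicle control wells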
Conditions: for IC50: curve of first compound; for viability, T/C: stronger effect = lower value
Source text: Combinatorial screen of targeted agents with ipatasertib and abemaciclib in multi-cell type tumor spheroids
A high-throughput screen of multi-cell type tumor spheroids was designed to identify active combinations of targeted small molecules and ipatasertib or abemaciclib. Complex spheroids include a stromal component modeled by human endothelial cells (HUVEC) and fibroblasts modeled by human mesenchymal stem cells (MSCs). The concentration ranges selected for each drug and investigational agent were based upon clinically achievable concentrations if the clinical Cmax of the agent was known.
Compounds. The drugs and investigational agents: ipatasertib (NSC767898), abemaciclib(NSC768073), selumetinib (NSC741078), trametinib (758246), adavosertib (NSC754352), everolimus (NSC733504), sapanisertib (NSC764658), vemurafenib (NSC761431), venetoclax (NSC766270), copanlisib (NSC809693), apelisib (NSC765974), palbociblib (NSC758247), vemurafenib (NSC761431), dabrafenib (NSC764134), ravoxertinib (NSC781343), BMS-387032 (NSC767048), sotorasib (NSC818433), talazoparib (NSC767125) and afursertib (NSC778305), were obtained from the National Cancer Institute (NCI) Developmental Therapeutics Program Chemical Repository. The FDA-approved anticancer drug set is available from the NCI Developmental Therapeutics Program. […] The stock solutions were prepared in dimethyl sulfoxide (DMSO, Sigma-Aldrich, St. Louis, MO, cat. D2650) at 800-fold the tested concentration and stored at -70 degrees C prior to their use. All drugs and investigational agents were tested over a range starting from a high concentration at or near the clinical Cmax and decreasing in half-log increments. If the clinical Cmax for an agent had not been determined, the highest concentration tested was 10 microM.
NCI60 Cell Culture. NCI60 cell lines were obtained from the NCI Developmental Therapeutics Program Tumor Repository. For each lot of cells, the Repository performed Applied Biosystems AmpFLSTR Identifiler testing with PCR amplification to confirm consistency with the published Identifier STR profile for each cell line. Cells were kept in continuous culture for no more than 20 passages. The optimal seeding densities for each of the cell lines at each time point assessed were determined prior to performing the concentration response studies. Briefly, the NCI60 human tumor lines were grown as monolayers in RPMI 1640 medium supplemented with 10% FBS and 2 mmol/L L-glutamine.
An additional 9 lines were from the NCI60 cell line panel including MDA-MB-231 breast carcinoma, MDA-MB-468 breast carcinoma, MCF7 breast carcinoma, Hs578T breast carcinoma, MALME-3M melanoma, SK-MEL-2 melanoma, SK-OV-3 ovarian carcinoma, DU-145 prostate carcinoma, PC-3 prostate carcinoma, all cell lines along with major genetic alterations are listed on Table 2. Pooled donor human umbilical vein endothelial cells (HUVEC, Lonza, cat. CC-2519) and human mesenchymal stem cells (hMSC, Lonza, cat. PT-2501) were purchased from Lonza (Walkersville, MD).
PDMR cell lines were grown in complete medium (DC medium): Dulbecco's modified Eagle's medium (DMEM)/F12 supplemented with 5% fetal bovine serum (FBS), 2 mM L-glutamine, 100 U/mL penicillin and 100 µg/ml streptomycin, 0.4 µg/ml hydrocortisone, 10 ng/ml epidermal growth factor (EGF) recombinant human protein, 24 µg/mL adenine, and 0.1 mg/mL primocin. During culture from frozen stock vials, PDMR cells were cultured in the same medium containing 10 µM Y-27632 (see Table 3). The PDCs were cultured in complete DMEM/F12 media without 10 microM Y-27632 dihydrochloride for at least two passages prior to the screen. The pooled donor HUVEC and hMSC were cultured in endothelial cell growth medium 2 (PromoCell, Heidelberg, Germany, cat. C-22011) and mesenchymal stem cell growth medium 2 (PromoCell, cat. C-28009), respectively. For all experiments, HUVEC and hMSC were used at passages </=5.
[…]

[1] = second compound 0.1 µM, first compound 0.0316 µM
[2] = second compound 0.1 µM, first compound 0.1 µM
[3] = second compound 0.1 µM, first compound 0.316 µM
[4] = second compound 0.1 µM, first compound 1 µM
[5] = second compound 0.1 µM, first compound 3.16 µM
[6] = second compound 0.1 µM, first compound 10 µM
[7] = second compound 0.316 µM, first compound 0.0316 µM
[8] = second compound 0.316 µM, first compound 0.1 µM
[9] = second compound 0.316 µM, first compound 0.316 µM
[10] = second compound 0.316 µM, first compound 1 µM
[11] = second compound 0.316 µM, first compound 3.16 µM
[12] = second compound 0.316 µM, first compound 10 µM
[13] = second compound 1 µM, first compound 0.0316 µM
[14] = second compound 1 µM, first compound 0.1 µM
[15] = second compound 1 µM, first compound 0.316 µM
[16] = second compound 1 µM, first compound 1 µM
[17] = second compound 1 µM, first compound 3.16 µM
[18] = second compound 1 µM, first compound 10 µM
[19] = second compound 3.16 µM, first compound 0.0316 µM
[20] = second compound 3.16 µM, first compound 0.1 µM
[21] = second compound 3.16 µM, first compound 0.316 µM
[22] = second compound 3.16 µM, first compound 1 µM
[23] = second compound 3.16 µM, first compound 3.16 µM
[24] = second compound 3.16 µM, first compound 10 µM
[25] = second compound 10 µM, first compound 0.0316 µM
[26] = second compound 10 µM, first compound 0.1 µM
[27] = second compound 10 µM, first compound 0.316 µM
[28] = second compound 10 µM, first compound 1 µM
[29] = second compound 10 µM, first compound 3.16 µM
[30] = second compound 10 µM, first compound 10 µM

C=CCn1c(=O)c2cnc(Nc3ccc(N4CCN(C)CC4)cc3)nc2n1-c1cccc(C(C)(C)O)n1 + CC(C)NCC(C(=O)N1CCN(c2ncnc3c2C(C)CC3O)CC1)c1ccc(Cl)cc1
IC50 (second compound 0.1 µM): 114 nM
IC50 (second compound 0.316 µM): < 31.6 nM
IC50 (second compound 1 µM): < 31.6 nM
IC50 (second compound 3.16 µM): < 31.6 nM
IC50 (second compound 10 µM): < 31.6 nM
viability, T/C [1]: 73.4%
viability, T/C [2]: 48.6%
viability, T/C [3]: 42.4%
viability, T/C [4]: 20.5%
viability, T/C [5]: 19.6%
viability, T/C [6]: 21.1%
viability, T/C [7]: 41.3%
viability, T/C [8]: 31.3%
viability, T/C [9]: 15.4%
viability, T/C [10]: 14.1%
viability, T/C [11]: 13.8%
viability, T/C [12]: 17.2%
viability, T/C [13]: 20.4%
viability, T/C [14]: 16.2%
viability, T/C [15]: 10.6%
viability, T/C [16]: 9.67%
viability, T/C [17]: 9.62%
viability, T/C [18]: 11.5%
viability, T/C [19]: 14.3%
viability, T/C [20]: 11%
viability, T/C [21]: 8.81%
viability, T/C [22]: 7.7%
viability, T/C [23]: 8.01%
viability, T/C [24]: 7.89%
viability, T/C [25]: 13.1%
viability, T/C [26]: 11.7%
viability, T/C [27]: 8.4%
viability, T/C [28]: 6.86%
viability, T/C [29]: 7.49%
viability, T/C [30]: 7.22%

CC(C)n1nc(-c2ccc3oc(N)nc3c2)c2c(N)ncnc21 + CC(C)NCC(C(=O)N1CCN(c2ncnc3c2C(C)CC3O)CC1)c1ccc(Cl)cc1
IC50 (second compound 0.1 µM): 1.3 nM
IC50 (second compound 0.316 µM): < 0.316 nM
IC50 (second compound 1 µM): < 0.316 nM
IC50 (second compound 3.16 µM): < 0.316 nM
IC50 (second compound 10 µM): < 0.316 nM
viability, T/C (second compound 0.1 µM, first compound 0.000316 µM): 63%
viability, T/C (second compound 0.1 µM, first compound 0.001 µM): 52.6%
viability, T/C (second compound 0.1 µM, first compound 0.00316 µM): 38.1%
viability, T/C (second compound 0.1 µM, first compound 0.01 µM): 20.2%
viability, T/C [1]: 10.4%
viability, T/C [2]: 10%
viability, T/C (second compound 0.316 µM, first compound 0.000316 µM): 37.3%
viability, T/C (second compound 0.316 µM, first compound 0.001 µM): 32.8%
viability, T/C (second compound 0.316 µM, first compound 0.00316 µM): 18.4%
viability, T/C (second compound 0.316 µM, first compound 0.01 µM): 11.8%
viability, T/C [7]: 7.3%
viability, T/C [8]: 6.67%
viability, T/C (second compound 1 µM, first compound 0.000316 µM): 20%
viability, T/C (second compound 1 µM, first compound 0.001 µM): 14.8%
viability, T/C (second compound 1 µM, first compound 0.00316 µM): 9.96%
viability, T/C (second compound 1 µM, first compound 0.01 µM): 7.81%
viability, T/C [13]: 5.46%
viability, T/C [14]: 4.64%
viability, T/C (second compound 3.16 µM, first compound 0.000316 µM): 12%
viability, T/C (second compound 3.16 µM, first compound 0.001 µM): 10.3%
viability, T/C (second compound 3.16 µM, first compound 0.00316 µM): 8.27%
viability, T/C (second compound 3.16 µM, first compound 0.01 µM): 5.41%
viability, T/C [19]: 3.69%
viability, T/C [20]: 4.13%
viability, T/C (second compound 10 µM, first compound 0.000316 µM): 12%
viability, T/C (second compound 10 µM, first compound 0.001 µM): 10.2%
viability, T/C (second compound 10 µM, first compound 0.00316 µM): 7.33%
viability, T/C (second compound 10 µM, first compound 0.01 µM): 3.83%
viability, T/C [25]: 2.74%
viability, T/C [26]: 2.74%

CC1(C)CCC(CN2CCN(c3ccc(C(=O)NS(=O)(=O)c4ccc(NCC5CCOCC5)c([N+](=O)[O-])c4)c(Oc4cnc5[nH]ccc5c4)c3)CC2)=C(c2ccc(Cl)cc2)C1 + CC(C)NCC(C(=O)N1CCN(c2ncnc3c2C(C)CC3O)CC1)c1ccc(Cl)cc1
IC50 (second compound 0.1 µM): 4270 nM
IC50 (second compound 0.316 µM): < 31.6 nM
IC50 (second compound 1 µM): < 31.6 nM
IC50 (second compound 3.16 µM): < 31.6 nM
IC50 (second compound 10 µM): < 31.6 nM
viability, T/C [1]: 69.2%
viability, T/C [2]: 63.2%
viability, T/C [3]: 67.6%
viability, T/C [4]: 63.2%
viability, T/C [5]: 69%
viability, T/C [6]: 3.74%
viability, T/C [7]: 43%
viability, T/C [8]: 46.8%
viability, T/C [9]: 42.7%
viability, T/C [10]: 45.3%
viability, T/C [11]: 35.7%
viability, T/C [12]: 3.22%
viability, T/C [13]: 22%
viability, T/C [14]: 20.5%
viability, T/C [15]: 22.4%
viability, T/C [16]: 19%
viability, T/C [17]: 15.8%
viability, T/C [18]: 3.59%
viability, T/C [19]: 14.5%
viability, T/C [20]: 15.3%
viability, T/C [21]: 12.4%
viability, T/C [22]: 13.4%
viability, T/C [23]: 12.7%
viability, T/C [24]: 3.12%
viability, T/C [25]: 13.7%
viability, T/C [26]: 12.7%
viability, T/C [27]: 14.1%
viability, T/C [28]: 11.5%
viability, T/C [29]: 10.7%
viability, T/C [30]: 0.81%

CCCS(=O)(=O)Nc1ccc(F)c(C(=O)c2c[nH]c3ncc(-c4ccc(Cl)cc4)cc23)c1F + CC(C)NCC(C(=O)N1CCN(c2ncnc3c2C(C)CC3O)CC1)c1ccc(Cl)cc1
IC50 (second compound 0.1 µM): 9890 nM
IC50 (second compound 0.316 µM): < 31.6 nM
IC50 (second compound 1 µM): < 31.6 nM
IC50 (second compound 3.16 µM): < 31.6 nM
IC50 (second compound 10 µM): < 31.6 nM
viability, T/C [1]: 81.9%
viability, T/C [2]: 87.5%
viability, T/C [3]: 95.2%
viability, T/C [4]: 94.1%
viability, T/C [5]: 83.8%
viability, T/C [6]: 49.3%
viability, T/C [7]: 45.2%
viability, T/C [8]: 43.8%
viability, T/C [9]: 46.4%
viability, T/C [10]: 52.7%
viability, T/C [11]: 50.3%
viability, T/C [12]: 27%
viability, T/C [13]: 25%
viability, T/C [14]: 22.6%
viability, T/C [15]: 27%
viability, T/C [16]: 28.4%
viability, T/C [17]: 26.3%
viability, T/C [18]: 15.1%
viability, T/C [19]: 13.6%
viability, T/C [20]: 15.6%
viability, T/C [21]: 16.8%
viability, T/C [22]: 17.2%
viability, T/C [23]: 14.5%
viability, T/C [24]: 10.5%
viability, T/C [25]: 12.8%
viability, T/C [26]: 13%
viability, T/C [27]: 15%
viability, T/C [28]: 14.9%
viability, T/C [29]: 12.6%
viability, T/C [30]: 7.8%
